Test results from the NIST ThermoML archive (doi:10.1016/j.jct.2017.02.011).
± gives the expanded uncertainty stated by the source.

Key:
[1] = Crystal; DTA
[2] = Molar enthalpy of transition or fusion; details: Crystal; DSC

Normal melting temperature [1]: 108.60 ± 0.5 °C
Molar enthalpy of transition or fusion [2]: 3.94 ± 0.21 kcal/mol
SMILES: Cc1cc(C)[nH]n1 [3,5-dimethylpyrazole]
